Laboratory results published in ChEMBL document CHEMBL1201862, “PubChem BioAssay data set” (2004).
Activity calls are given as the source filed them.

Legend:
[1] = biological target: Cyclin-dependent kinase 8 (Homo sapiens, UniProt P49336); assay: Navigating the Kinome. Panel member name: CDK8; type: functional
[2] = biological target: Vascular endothelial growth factor receptor 2 (Homo sapiens, UniProt P35968); type: functional
[3] = biological target: T1, Tyrosine-protein kinase receptor TYRO3 (Homo sapiens, UniProt Q06418); type: functional;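 note: TYRO3 value obtained as one member of a kinome-wide profiling panel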
T1 sequence (Q06418 whole entry): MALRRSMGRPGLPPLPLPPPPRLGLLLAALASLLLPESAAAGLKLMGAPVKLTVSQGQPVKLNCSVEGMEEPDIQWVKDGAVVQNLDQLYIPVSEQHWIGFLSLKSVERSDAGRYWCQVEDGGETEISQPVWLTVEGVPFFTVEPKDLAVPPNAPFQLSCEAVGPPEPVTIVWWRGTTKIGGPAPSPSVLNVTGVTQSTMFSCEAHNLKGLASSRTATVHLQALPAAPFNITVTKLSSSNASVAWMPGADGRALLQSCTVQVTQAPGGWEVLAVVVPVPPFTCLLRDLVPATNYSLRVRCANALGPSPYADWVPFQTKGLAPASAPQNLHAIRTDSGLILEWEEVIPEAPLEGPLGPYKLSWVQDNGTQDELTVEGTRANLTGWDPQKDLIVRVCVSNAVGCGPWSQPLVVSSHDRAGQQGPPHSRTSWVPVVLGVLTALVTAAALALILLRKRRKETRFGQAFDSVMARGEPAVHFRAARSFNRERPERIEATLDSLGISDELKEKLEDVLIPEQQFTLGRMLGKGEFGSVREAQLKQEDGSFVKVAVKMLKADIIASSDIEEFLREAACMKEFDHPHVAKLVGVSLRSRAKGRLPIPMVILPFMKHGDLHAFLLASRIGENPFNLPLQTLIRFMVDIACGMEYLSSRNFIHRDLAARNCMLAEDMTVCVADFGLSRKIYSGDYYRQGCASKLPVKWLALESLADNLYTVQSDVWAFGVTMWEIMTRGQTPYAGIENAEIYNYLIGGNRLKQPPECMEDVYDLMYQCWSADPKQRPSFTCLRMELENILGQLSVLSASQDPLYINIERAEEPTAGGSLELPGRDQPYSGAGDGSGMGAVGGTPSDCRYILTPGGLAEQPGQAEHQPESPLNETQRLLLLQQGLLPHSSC

[4] = biological target: Tyrosine-protein kinase JAK3 (Homo sapiens, UniProt P52333); type: functional
Chain of Tyrosine-protein kinase JAK3 (P52333 whole entry): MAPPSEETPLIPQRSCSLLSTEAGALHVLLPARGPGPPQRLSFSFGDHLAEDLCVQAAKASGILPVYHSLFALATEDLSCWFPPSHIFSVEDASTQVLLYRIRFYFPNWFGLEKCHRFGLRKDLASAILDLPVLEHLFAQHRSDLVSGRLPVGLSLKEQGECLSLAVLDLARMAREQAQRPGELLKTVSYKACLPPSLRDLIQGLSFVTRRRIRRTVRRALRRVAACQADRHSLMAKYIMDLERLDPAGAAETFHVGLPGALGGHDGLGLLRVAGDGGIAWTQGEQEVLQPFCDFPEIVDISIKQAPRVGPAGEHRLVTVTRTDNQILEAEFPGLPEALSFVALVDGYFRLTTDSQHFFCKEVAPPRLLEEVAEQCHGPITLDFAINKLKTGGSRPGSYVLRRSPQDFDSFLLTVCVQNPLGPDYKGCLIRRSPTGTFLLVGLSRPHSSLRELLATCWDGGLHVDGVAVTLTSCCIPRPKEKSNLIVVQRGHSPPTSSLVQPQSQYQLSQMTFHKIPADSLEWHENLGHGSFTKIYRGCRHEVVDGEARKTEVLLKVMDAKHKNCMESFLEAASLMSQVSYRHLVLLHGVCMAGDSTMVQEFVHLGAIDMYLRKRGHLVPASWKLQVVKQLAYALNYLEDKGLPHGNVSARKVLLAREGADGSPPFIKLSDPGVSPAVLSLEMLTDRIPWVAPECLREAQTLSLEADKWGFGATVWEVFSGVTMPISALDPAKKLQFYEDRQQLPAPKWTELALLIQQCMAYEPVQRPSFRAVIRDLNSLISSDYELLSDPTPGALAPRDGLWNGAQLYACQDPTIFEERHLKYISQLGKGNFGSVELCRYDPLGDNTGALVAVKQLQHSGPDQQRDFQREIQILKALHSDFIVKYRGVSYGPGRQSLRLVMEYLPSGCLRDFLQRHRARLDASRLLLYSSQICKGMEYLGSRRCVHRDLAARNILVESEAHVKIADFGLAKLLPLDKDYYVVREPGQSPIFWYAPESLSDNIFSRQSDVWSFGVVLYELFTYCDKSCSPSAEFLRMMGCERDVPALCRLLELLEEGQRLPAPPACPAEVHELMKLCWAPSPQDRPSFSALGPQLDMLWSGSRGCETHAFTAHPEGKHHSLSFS

[5] = biological target: Dual specificity tyrosine-phosphorylation-regulated kinase 1B (Homo sapiens, UniProt Q9Y463); assay: Navigating the Kinome. Panel member name: DYRK1B; type: functional
[6] = biological target: Serine/threonine-protein kinase TAO1 (Homo sapiens, UniProt Q7L7X3); type: functional
[7] = biological target: Receptor-type tyrosine-protein kinase FLT3 (Homo sapiens, UniProt P36888); type: functional;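 note: FLT3 was tested as one member of a kinome-wide kinase panel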
[8] = biological target: Inhibitor of nuclear factor kappa-B kinase subunit epsilon (Homo sapiens, UniProt Q14164); assay: Navigating the Kinome. Panel member name: IKBKE; type: functional
Chain of Inhibitor of nuclear factor kappa-B kinase subunit epsilon (Q14164 whole entry): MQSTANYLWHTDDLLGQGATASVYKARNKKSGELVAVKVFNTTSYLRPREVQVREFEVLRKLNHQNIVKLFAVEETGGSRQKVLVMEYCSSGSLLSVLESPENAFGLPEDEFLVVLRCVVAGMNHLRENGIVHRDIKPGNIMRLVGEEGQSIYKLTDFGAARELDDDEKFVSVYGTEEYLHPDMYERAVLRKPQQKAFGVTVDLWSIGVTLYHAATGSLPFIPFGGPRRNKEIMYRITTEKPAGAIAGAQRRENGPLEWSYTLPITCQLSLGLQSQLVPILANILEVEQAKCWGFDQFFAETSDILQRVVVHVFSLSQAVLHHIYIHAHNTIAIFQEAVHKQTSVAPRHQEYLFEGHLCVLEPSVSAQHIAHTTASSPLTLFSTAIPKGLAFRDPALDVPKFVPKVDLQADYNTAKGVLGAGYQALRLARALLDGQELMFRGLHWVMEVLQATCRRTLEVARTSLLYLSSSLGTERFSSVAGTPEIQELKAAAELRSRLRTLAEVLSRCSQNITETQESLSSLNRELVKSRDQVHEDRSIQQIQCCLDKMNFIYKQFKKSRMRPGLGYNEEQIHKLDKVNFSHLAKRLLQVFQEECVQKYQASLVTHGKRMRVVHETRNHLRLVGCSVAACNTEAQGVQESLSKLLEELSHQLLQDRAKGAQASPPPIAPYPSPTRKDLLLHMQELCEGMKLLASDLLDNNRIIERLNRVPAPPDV

[9] = biological target: High affinity nerve growth factor receptor (Homo sapiens, UniProt P04629); type: functional;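 note: NTRK1 tested as one member of a kinome-wide profiling panel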
LIM domain kinase 1 = LIM domain kinase 1 (Homo sapiens, UniProt P53667); assay: Navigating the Kinome. Panel member name: LIMK1; type: functional
[10] = biological target: Death-associated protein kinase 3 (Homo sapiens, UniProt O43293); type: functional;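 note: measured as one member of a kinome-wide profiling panel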
Chain of Death-associated protein kinase 3 (O43293 whole entry): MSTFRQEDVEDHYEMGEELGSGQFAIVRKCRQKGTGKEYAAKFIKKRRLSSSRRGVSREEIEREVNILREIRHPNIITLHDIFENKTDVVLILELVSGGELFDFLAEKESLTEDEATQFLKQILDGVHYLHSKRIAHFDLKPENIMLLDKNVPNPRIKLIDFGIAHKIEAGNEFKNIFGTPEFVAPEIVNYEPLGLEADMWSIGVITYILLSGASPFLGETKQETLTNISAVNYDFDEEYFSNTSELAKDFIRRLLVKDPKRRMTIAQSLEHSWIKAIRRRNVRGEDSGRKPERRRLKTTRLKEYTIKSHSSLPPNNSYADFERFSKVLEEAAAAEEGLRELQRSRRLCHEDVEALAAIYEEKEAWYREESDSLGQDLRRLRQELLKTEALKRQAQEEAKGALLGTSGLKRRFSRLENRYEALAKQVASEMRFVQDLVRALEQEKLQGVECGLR

[11] = biological target: Leukocyte tyrosine kinase receptor (Homo sapiens, UniProt P29376); assay: Navigating the Kinome. Panel member name: LTK; type: functional
Chain of Leukocyte tyrosine kinase receptor (P29376 whole entry): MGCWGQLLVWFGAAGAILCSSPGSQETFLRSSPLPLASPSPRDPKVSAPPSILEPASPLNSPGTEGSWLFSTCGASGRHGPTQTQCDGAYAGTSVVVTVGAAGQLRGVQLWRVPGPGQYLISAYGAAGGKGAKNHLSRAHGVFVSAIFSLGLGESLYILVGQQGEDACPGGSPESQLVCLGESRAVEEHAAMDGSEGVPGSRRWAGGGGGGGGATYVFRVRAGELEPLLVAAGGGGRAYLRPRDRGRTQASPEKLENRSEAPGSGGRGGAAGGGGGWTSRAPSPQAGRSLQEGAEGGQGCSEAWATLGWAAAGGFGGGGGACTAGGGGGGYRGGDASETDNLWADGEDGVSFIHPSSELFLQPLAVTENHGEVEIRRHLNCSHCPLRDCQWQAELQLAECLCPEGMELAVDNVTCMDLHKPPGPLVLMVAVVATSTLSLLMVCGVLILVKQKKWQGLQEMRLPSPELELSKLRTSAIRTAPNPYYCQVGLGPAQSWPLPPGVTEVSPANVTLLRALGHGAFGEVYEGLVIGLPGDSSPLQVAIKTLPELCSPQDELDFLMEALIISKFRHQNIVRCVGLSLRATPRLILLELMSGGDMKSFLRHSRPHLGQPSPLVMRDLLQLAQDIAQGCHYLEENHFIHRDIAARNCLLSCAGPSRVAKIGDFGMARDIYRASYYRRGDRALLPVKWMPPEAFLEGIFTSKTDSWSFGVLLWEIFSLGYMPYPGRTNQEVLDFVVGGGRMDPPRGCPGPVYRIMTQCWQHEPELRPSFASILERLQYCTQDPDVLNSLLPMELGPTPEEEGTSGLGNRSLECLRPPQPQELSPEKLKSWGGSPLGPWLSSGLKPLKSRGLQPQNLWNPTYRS

[12] = biological target: 5'-AMP-activated protein kinase catalytic subunit alpha-1 (Homo sapiens, UniProt Q13131); type: functional
Chain of 5'-AMP-activated protein kinase catalytic subunit alpha-1 (Q13131 whole entry): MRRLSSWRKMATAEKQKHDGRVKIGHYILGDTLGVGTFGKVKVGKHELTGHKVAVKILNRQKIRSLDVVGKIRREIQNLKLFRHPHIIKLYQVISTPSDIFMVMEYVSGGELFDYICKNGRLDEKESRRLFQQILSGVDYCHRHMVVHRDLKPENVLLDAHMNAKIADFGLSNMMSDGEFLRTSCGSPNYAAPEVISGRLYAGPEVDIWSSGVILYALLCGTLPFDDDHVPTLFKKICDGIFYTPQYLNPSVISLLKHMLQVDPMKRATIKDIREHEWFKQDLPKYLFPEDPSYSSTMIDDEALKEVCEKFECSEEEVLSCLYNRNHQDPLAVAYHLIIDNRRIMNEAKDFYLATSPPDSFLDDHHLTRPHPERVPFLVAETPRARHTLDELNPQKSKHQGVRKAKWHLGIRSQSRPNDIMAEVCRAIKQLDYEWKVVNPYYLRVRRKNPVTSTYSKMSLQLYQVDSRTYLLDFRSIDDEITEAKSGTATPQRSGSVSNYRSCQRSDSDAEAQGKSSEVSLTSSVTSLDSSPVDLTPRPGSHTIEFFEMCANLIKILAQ

[13] = biological target: ALK tyrosine kinase receptor (Homo sapiens, UniProt Q9UM73); type: functional;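 note: ALK tested as one member of a kinase panel screen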
[14] = biological target: cAMP-dependent protein kinase catalytic subunit alpha (Homo sapiens, UniProt P17612); type: functional
[15] = biological target: Casein kinase I isoform alpha (Homo sapiens, UniProt P48729); type: functional
[16] = biological target: Leucine-rich repeat serine/threonine-protein kinase 2 (Homo sapiens, UniProt Q5S007); type: functional;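 note: value from a broad kinome-wide panel profiling study in which LRRK2 was one of the kinases tested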
[17] = biological target: Dual specificity mitogen-activated protein kinase kinase 1 (Homo sapiens, UniProt Q02750); assay: Navigating the Kinome. Panel member name: MAP2K1; type: functional
[18] = biological target: Macrophage-stimulating protein receptor (Homo sapiens, UniProt Q04912); assay: Navigating the Kinome. Panel member name: MST1R; type: functional
[19] = biological target: Serine/threonine-protein kinase PAK 4 (Homo sapiens, UniProt O96013); type: functional;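 note: value obtained within a kinome profiling panel in which PAK4 was one of the panel members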
[20] = biological target: Cyclin-dependent kinase 7 (Homo sapiens, UniProt P50613); type: functional;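 note: value comes from a kinome-wide kinase profiling panel in which CDK7 is one member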
[21] = biological target: Serine/threonine-protein kinase TBK1 (Homo sapiens, UniProt Q9UHD2); assay: Navigating the Kinome. Panel member name: TBK1; type: functional
[22] = biological target: T2, cAMP-dependent protein kinase catalytic subunit PRKX (Homo sapiens, UniProt P51817); type: functional
T2 sequence (P51817 whole entry): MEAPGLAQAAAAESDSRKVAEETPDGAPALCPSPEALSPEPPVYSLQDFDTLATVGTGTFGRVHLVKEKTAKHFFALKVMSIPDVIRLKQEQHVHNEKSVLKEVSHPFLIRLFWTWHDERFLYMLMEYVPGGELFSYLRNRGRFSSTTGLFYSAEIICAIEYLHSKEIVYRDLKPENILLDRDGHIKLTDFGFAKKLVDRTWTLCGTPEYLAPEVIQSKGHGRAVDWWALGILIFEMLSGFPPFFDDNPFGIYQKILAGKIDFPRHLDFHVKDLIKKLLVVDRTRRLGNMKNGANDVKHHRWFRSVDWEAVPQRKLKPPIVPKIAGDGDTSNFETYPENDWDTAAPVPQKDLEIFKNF

Aurora kinase B = Aurora kinase B (Homo sapiens, UniProt Q96GD4); type: functional
[23] = HepG2 cell cytotoxicity, dose response, cytotoxicity control for Shn3 inhibitor project, CellTiter-Glo, cherry-picked (AID 624134); type: functional, cell-based
INS1 = assay: beta cell apoptosis inhibitors, cytokine rescue, dose response, luminescence, retest (AID 449756); type: functional, cell-based; details: Rattus norvegicus;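 note: cell death triggered by IL-1 beta plus TNF-alpha plus IFN-gamma mixture; protective hits raise ATP signal compared with cytokine alone wells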
[24] = Shn3 3'UTR reporter inhibitors, dose response, cell-based, Clone20 osteoblasts, firefly luciferase, cherry-picked (AID 624132); type: functional;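 note: firefly luciferase luminescence from reporter carrying the Shn3 3'UTR in osteoblasts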
[25] = NIH-3T3 fibroblast cytotoxicity, dose response, cytotoxicity control, cell-based, fluorescence, Alamar Blue, secondary assay (AID 2327); type: functional;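 note: NIH-3T3 mouse fibroblasts cultured with fluconazole at 8 µg/mL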
[26] = control 3'UTR Renilla luciferase suppression, dose response, counter-screen for Shn3 inhibitor project, cell-based, Clone20-Shn3RL, cherry-picked (AID 624133); type: functional

Chain of Vascular endothelial growth factor receptor 2 (P35968 whole entry): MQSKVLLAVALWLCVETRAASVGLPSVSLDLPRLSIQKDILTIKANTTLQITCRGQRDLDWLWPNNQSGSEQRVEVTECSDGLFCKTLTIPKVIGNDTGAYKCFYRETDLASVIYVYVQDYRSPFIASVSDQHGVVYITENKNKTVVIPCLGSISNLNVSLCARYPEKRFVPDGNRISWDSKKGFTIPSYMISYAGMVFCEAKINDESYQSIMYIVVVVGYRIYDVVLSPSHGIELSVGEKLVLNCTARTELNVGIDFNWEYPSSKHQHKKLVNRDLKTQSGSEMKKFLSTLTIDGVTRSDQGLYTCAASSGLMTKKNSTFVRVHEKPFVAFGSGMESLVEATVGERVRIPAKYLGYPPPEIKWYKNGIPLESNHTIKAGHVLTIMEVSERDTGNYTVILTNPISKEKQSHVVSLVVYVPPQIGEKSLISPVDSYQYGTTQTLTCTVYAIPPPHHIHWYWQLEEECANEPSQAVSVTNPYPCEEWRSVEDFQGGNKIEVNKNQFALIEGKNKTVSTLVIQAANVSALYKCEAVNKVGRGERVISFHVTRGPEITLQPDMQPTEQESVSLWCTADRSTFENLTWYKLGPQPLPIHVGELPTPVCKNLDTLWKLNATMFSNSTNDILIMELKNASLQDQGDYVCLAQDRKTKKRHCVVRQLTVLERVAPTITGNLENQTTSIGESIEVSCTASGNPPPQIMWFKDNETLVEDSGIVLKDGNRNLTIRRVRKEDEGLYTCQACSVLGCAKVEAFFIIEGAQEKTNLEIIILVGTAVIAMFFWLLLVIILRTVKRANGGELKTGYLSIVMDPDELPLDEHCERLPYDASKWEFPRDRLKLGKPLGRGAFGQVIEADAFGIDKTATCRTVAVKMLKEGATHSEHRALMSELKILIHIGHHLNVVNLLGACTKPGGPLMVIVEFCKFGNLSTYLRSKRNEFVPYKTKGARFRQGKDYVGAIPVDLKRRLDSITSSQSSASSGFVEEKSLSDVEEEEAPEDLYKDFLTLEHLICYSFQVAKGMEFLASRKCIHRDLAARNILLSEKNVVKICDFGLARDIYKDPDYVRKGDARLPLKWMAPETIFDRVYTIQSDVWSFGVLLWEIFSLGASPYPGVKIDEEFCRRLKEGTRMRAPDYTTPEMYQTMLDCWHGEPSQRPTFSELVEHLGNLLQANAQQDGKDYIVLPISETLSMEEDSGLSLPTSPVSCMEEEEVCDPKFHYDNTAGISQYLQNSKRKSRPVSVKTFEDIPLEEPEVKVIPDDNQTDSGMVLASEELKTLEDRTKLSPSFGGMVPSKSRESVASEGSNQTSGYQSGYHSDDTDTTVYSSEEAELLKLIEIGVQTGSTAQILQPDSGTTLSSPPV

| Structure (SMILES) | Ki [1] | Ki [2] | Ki [3] | Ki [4] | Ki [5] | Ki [6] | Ki [7] | Ki [8] | Ki [9] | Ki (LIM domain kinase 1) | Ki [10] | Ki [11] | Ki [12] | Ki [13] | Ki [14] | Ki [15] | Ki [16] | Ki [17] | Ki [18] | Ki [19] | further results |
| --- | --- | --- | --- | --- | --- | --- | --- | --- | --- | --- | --- | --- | --- | --- | --- | --- | --- | --- | --- | --- | --- |
| Cc1ccc(-c2cc(-c3cc(Br)ccc3O)[nH]c(=O)c2C#N)s1 | 1.26 µM (active) | 0.631 µM (active) | 0.794 µM (active) | > 5.01 µM (inactive) | 0.794 µM (active) | > 6.31 µM (inactive) | 0.631 µM (active) | > 3.16 µM (inactive) | 0.631 µM (active) | > 3.16 µM (inactive) | > 5.01 µM (inactive) | > 2.51 µM (inactive) | 0.794 µM (active) | 2 µM (active) | 0.251 µM (active) | > 3.98 µM (inactive) | > 2.51 µM (inactive) | > 3.16 µM (inactive) | 0.794 µM (active) | 2 µM (active) | Ki [20]: > 3.98 µM (inactive); Ki [21]: > 3.16 µM (inactive); Ki [22]: > 3.16 µM (inactive); Ki (Aurora kinase B): 0.794 µM (active) |
| CCCC(=O)NC(c1cccs1)c1cc(Cl)c2cccnc2c1O (stereo not drawn) | – | – | – | – | – | – | – | – | – | – | – | – | – | – | – | – | – | – | – | – | AC50 [23]: 3.76 µM (active); AC50 (INS1): 1.42 µM (active); AC50 [24]: 3.16 µM (active); EC50 [25]: > 150 µM (inactive); AC50 [26]: 4.36 µM (active) |
| O=C(Nc1cccc(C2Nc3ccc4ccccc4c3C3C=CCC32)c1)c1ccc(F)cc1 (stereo not drawn) | 0.794 µM (active) | > 2.51 µM (inactive) | 1.26 µM (active) | > 5.01 µM (inactive) | > 2.51 µM (inactive) | > 6.31 µM (inactive) | > 3.16 µM (inactive) | > 3.16 µM (inactive) | 0.794 µM (active) | 0.2 µM (active) | > 5.01 µM (inactive) | > 2.51 µM (inactive) | 3.16 µM (active) | 3.16 µM (active) | 1.26 µM (active) | 3.98 µM (active) | > 2.51 µM (inactive) | 1 µM (active) | > 3.98 µM (inactive) | > 5.01 µM (inactive) | Ki [20]: 1.26 µM (active); Ki [21]: 3.16 µM (active); Ki [22]: > 3.16 µM (inactive); Ki (Aurora kinase B): 1 µM (active) |
| Cc1ccc(C(=O)OCn2ncc(Cl)c(Cl)c2=O)cc1 | – | – | – | – | – | – | – | – | – | – | – | – | – | – | – | – | – | – | – | – | AC50 [23]: 33.2 µM (active); AC50 (INS1): 5.51 µM (active); AC50 [24]: 5.07 µM (active); EC50 [25]: 3.07 µM (inconclusive); AC50 [26]: 3.15 µM (active) |
